Three compounds from US7115797B2, “Mice lacking inward-rectifying potassium channel Kir6.1” (JCR Pharmaceuticals Co., Ltd., priority 2002, dated 2006) can be followed below.

Structures are written as SMILES.

The subject of data set [1] is ventricular cells. In words: Action potential recording in isolated ventricular cells (current-clamp). The format is cell-based, mouse. To be noted: for APD at 90% repolarization level (APD90): mean±SE. The protocol: (§1) Kir6.1 is expressed most abundantly in the heart (24), and is present in cardiomyocytes (25). Therefore, electrophysiological properties of ventricular myocytes isolated from Kir6.1^+/+ and Kir6.1^−/− mice were compared. The quasi-steady-state membrane currents were recorded using a ramp-pulse protocol.
(§2) Briefly, single ventricular cells of the heart were enzymatically isolated and whole-cell membrane currents were recorded by the patch-clamp method (13). The pipette solution was composed of 20 mM KCl, 1 mM MgCl2, 1 mM phosphocreatine-K2, 110 mM K1-aspartate, 1 mM K2-ATP, 1.0 mM EGTA, 5 mM HEPES (pCa 8.0, pH 7.4). The external solution used was a HEPES-Tyrode solution containing 143 mM NaCl, 5.4 mM KCl, 1.8 mM CaCl2, 0.5 mM MgCl2, 0.33 mM NaHPO4, […], 5 mM HEPES (pH 7.4). Voltage- and current-clamp experiments in heart cells were performed at 36.0° C.

For data set [2], the system named is aorta smooth muscle cells. In words: Whole-cell membrane currents of aorta smooth muscle cells. Type of data set: cell-based, mouse. Particulars: for density of pinacidil-induced, glibenclamide-sensitive inward K+ current: held at -40 mV, high K+ (140 mM) solution, mean±SE. The protocol:
Single smooth muscle cells of thoracic aorta were enzymatically isolated and electrophysiological studies were conducted in the same manner as performed in the cardiomyocytes.
The compositions of the extracellular high K^+ solution and the pipette solution used in this smooth muscle cell experiment were as follows. The external high-K^+ solution: 2.9 mM NaCl, 140 mM KCl, 2.2 mM CaCl2, 1.2 mM MgCl2, 14 mM glucose and 10 mM HEPES-KOH buffer (pH 7.4). The pipette solution: 140 mM KCl, 4 mM MgCl2, 1 mM ATP-K2, 10 mM EGTA and 10 mM HEPES-KOH solution (pH 7.2). The membrane current was measured at room temperature.
Effect of […] pinacidil was tested on whole-cell membrane currents of aorta smooth muscle cells held at −40 mV in high K^+ (140 mM) solution.

The subject of data set [3] is ventricular cells. In words: Whole-cell membrane currents of isolated ventricular cells (patch-clamp, ramp-pulse protocol). Type of data set: cell-based, mouse. To be noted: ventricular cells of both Kir6.1+/+ and Kir6.1-/- mice. As for the experimental part: as §1, §2
A general note: Patch clamp records ionic current or voltage across a cell membrane.

In data set [4] the test system is anesthetized mice. The data set is described as follows: Induction of coronary spasm by methylergometrine in vivo (ECG of anesthetized mice). As for the experimental part: (§3) ECG recordings of conscious mice under unrestricted conditions were obtained using an implantable radio frequency transmitter (TA10ETA-F20) (DATA SCIENCES, St. Paul, Minn.), with subcutaneous leads placed in the conventional lead II position. ECGs of anesthetized mice and isolated hearts (Langendorff-perfused heart) were recorded with leads placed on the body surface (lead II) or epicardium.
(§4) To link dysregulation of vascular tonus and sudden death in Kir6.1^−/− mice, an examination was tried to induce vasospasm using methylergometrine, an ergot alkaloid that stimulates serotonergic receptors and directly triggers the vasoconstriction of vascular smooth muscles (26).

The test system of data set [5] is Langendorff-perfused hearts. The data set is described as follows: Induction of coronary spasm by methylergometrine in vitro (ECG of Langendorff-perfused hearts). To be noted: 20 mg. Also noted: species or system mouse. As for the experimental part: as §3, §4
Another data set relates to aortic rings. The data set is described as follows: Aortic contraction in isolated aortic preparation (tension of thoracic aortic rings precontracted by norepinephrine). Type of data set: cell-based, mouse. To be noted: precontracted by 0.1 μM norepinephrine, cumulative pinacidil. As for the experimental part:
The vasodilation response of thoracic aorta to the K^+ channel opener was further examined in vitro by measuring changes in the tension of aortic rings isolated from Kir6.1^+/+ and Kir6.1^−/− mice (FIG. 12). In the same manner as described by Suzuki et al. (13), mechanical function studies of isolated thoracic aorta were carried out. Briefly, the thoracic aorta without the endothelium was removed and cut into rings (4 mm in length). For isometric tension recording, the rings were mounted in a thermostatic organ bath. The bath was perfused with Krebs-Henseleit solution gassed with 95% O2/5% CO2. The aortic rings were precontracted by 0.1 μM norepinephrine, and pinacidil was added in a cumulative manner.

The test system of data set [6] is anesthetized mice. The data set is described as follows: Measurement of aortic blood pressure (mean arterial pressure) in anesthetized mice. Type of data set: in vivo, mouse. To be noted: Kir6.1+/+ mice; intravenous 0.3 mg/kg; within 5 minutes; urethane anesthesia. As for the experimental part: K^+ channel openers are known to lower arterial blood pressure by relaxing vascular smooth muscles by opening vascular KATP channels. The present inventors examined the vasodilation response to the K^+ channel opener pinacidil in Kir6.1^+/+ and Kir6.1^−/− mice, in vivo at first.
Hemodynamic measurements were carried out according to the method described by, Suzuki, et al. (12). Changes of mean arterial pressure (MAP) after intravenous injection of 0.3 mg/kg pinacidil are indicated on the ordinate. The points show mean±SE of 6 animals for both groups.

The mark [7] stands for this setting: anesthetized Kir6.1-/- mice, intravenous injection 20 mg.

For `COc1ccc(Cl)cc1C(=O)NCCc1ccc(S(=O)(=O)NC(=O)NC2CCCCC2)cc1` [glibenclamide], in the data set with ventricular cells [1] (addition of 1 μM glibenclamide after 100 μM pinacidil, Kir6.1+/+ and Kir6.1-/- cells), the “reversal of pinacidil-induced APD90 shortening” value is on record as “reversed to control levels”. In data set [2] (Kir6.1+/+ smooth muscle cells), the “block of pinacidil-elicited inward K+ currents” value was “blocked”. Also, in the data set on ventricular cells [3] (1 μM glibenclamide), the “block of pinacidil-induced outward current” value is “blocked”.
For the compound `CC[C@@H](CO)NC(=O)[C@@H]1C=C2c3cccc4[nH]cc(c34)C[C@H]2N(C)C1` [methylergometrine], in the data set on anesthetized mice [4] (Kir6.1+/+ mice, intravenous injection), the “significant changes in ECG or death (animals affected)” value is given as “none of 7”. Moreover, the “cardiac death concomitantly with changes in ECG (animals affected)” value with anesthetized mice [4] (Kir6.1-/- mice, intravenous injection 20 mg) is 5 Kir6.1^−/− mice out of 8. In addition, in the data set on anesthetized mice [4] (setting [7]), the “depression of ST segments on ECG (animals affected)” value is reported as 1 animal out of 8 and the “elevation of ST segments on ECG (animals affected)” value is given as 4 animals out of 8. Moreover, in data set [5] (isolated hearts of Kir6.1+/+ mice), the “elevation of the ST segment in isolated hearts (hearts affected)” value is 0/5. In addition, the “elevation of the ST segment in isolated hearts (hearts affected)” value in data set [5] (isolated hearts of Kir6.1-/- mice) is reported as 4/4.
In the case of `CC(N/C(=N\C#N)Nc1ccncc1)C(C)(C)C` (centres unmarked) [pinacidil], the “APD at 90% repolarization level (APD90)” value in the data set with ventricular cells [1] (Kir6.1+/+ ventricular cells, after 100 μM pinacidil (before: 31.6±2.3 ms)) worked out at 18.3 ± 2.2 ms; in the data set on ventricular cells [1] (Kir6.1-/- ventricular cells, after 100 μM pinacidil (before: 31.1±4.2 ms)) it was 18.3 ± 3.9 ms. In addition, the “density of pinacidil-induced, glibenclamide-sensitive inward K+ current” value in data set [2] (Kir6.1+/+ smooth muscle cells) was found to be 9.53±2.32 pA/pF; in data set [2] (Kir6.1-/- smooth muscle cells), 0.13±0.07 pA/pF. In addition, the vasodilating effect entry in the data set on aortic rings (aortic rings from Kir6.1+/+ mice) is listed as “concentration-dependent vasodilating effect”; with aortic rings (aortic rings from Kir6.1-/- mice) it was “din not elicit any KATP channel-mediated vasodilating effect”. In addition, the “decrease in MAP” value in the data set on anesthetized mice [6] is reported as “about 30 mmHg”. In addition, in the data set on ventricular cells [3] (pinacidil 1, 10 or 100 μM, 36.0° C), the “outward current (ATP-sensitive K+ current, IK,ATP)” value is given as “concentration-dependent increases of an outward current”.
